Measurements reported in US11684638B2, “Targeted delivery system, system components, and methods” (REGENTS OF THE UNIVERSITY OF MINNESOTA, priority 2016, dated 2023).
Blank lines part the entries; values can stand above or below the molecule they belong to.

Legend:
MSCs [1] = experiment: MSC cell viability, MTS assay; assay type: cell-based, human
Protocol: Cell viability was determined by MTS assay at 3 days, 5 days, and 7 days. After incubation for the designated time period, Ac4ManNAz-containing medium was exchanged with 500 μL of fresh growth medium and 100 μL of the MTS/PMS solution was added to each well. Cells were further incubated for one hour at 37° C. and soluble formazan produced by the live cells was measured at 490 nm using a microplate reader. Cells without Ac4ManNAz treatment were used as a control.

MSCs [2] = tested on: MSCs
Protocol: Various Ac4ManNAz concentrations were evaluated as follows. MSCs were seeded onto 96-well plate at a density of 1.5×10^3 cells/well in 150 μL of MSCM supplemented with 0, 1 μM, 5 μM, 10 μM, 20 μM, 50 μM, or 100 μM final concentration of Ac4ManNAz. After three days of incubation, the cells were washed twice with DPBS and treated with sulforhodamine B dibenzocyclooctyl (DBCO-sulforhodamine B) (20 μM final concentration) for one hour. Cells were rinsed five times with DPBS and images were taken using a fluorescence microscope. For quantitative analysis, cells treated with Ac4ManNAz were stained with DBCO-carboxyrhodamine and the fluorescence intensity (λex: 485 and λem: 528 nm) was measured using plate reader (FLx800 microplate fluorescence reader, BioTek Instruments, Inc., Winooski, Vt., USA).
Similarly, various Ac4ManNAz incubation times were evaluated by culturing MSCs in 20 μM Ac4ManNAz for different incubation times. The cells were treated as before for microscopy or quantitation of available azide groups. The treatments were staggered to perform the final analysis at the same time to maintain the cell number at the time of analysis.

[3] = tested on: subcutaneous A549-Luc tumors injected with MSC-Az or control MSC; experiment: In vivo click chemistry with intravenous DBCO-Cy5.5; parameters: species or system athymic nude mice
Protocol: A549-Luc lung tumors were developed in athymic nude mice such that each animal has two tumors, one on each side of the abdomen. When the tumors reached about 100 mm^3, the animals received intratumoral injection (5×10^5 cells/100 μL) of control MSCs in one tumor and MSC-Az in the other tumor of the same animal. One hour following MSC injection, 5 μg of DBCO-Cy5.5 in 100 μL DPBS was injected intravenously per mice. DBCO-Cy5.5 binding to MSC-Az was monitored by imaging at different time intervals (0.5 hour, 1 hour, 5 hours, or 24 hours) using an IVIS Spectrum live animal imager (Xenogen Corp., Alameda, Calif.).

[4] = tested on: platinum-resistant C200 ovarian cancer cells; experiment: Cytotoxicity in co-culture […] assay (FIG. 11); assay type: cell-based
Protocol: FIG. 11. IC50 of glycoengineered MSCs in platinum-resistant C200 ovarian cancer cells in co-culture using […] assay (Corning, Inc., Tewksbury, Mass.). The cytotoxic potential of glycoengineered MSCs was determined by co-culturing with C200 cells using a […] assay at 72 hours. For cytotoxicity assessment, C200 cells (20,000/well) were seeded in lower chamber of 24 well […] plate with different concentrations of glycoengineered MSCs in upper chamber. […] However, when incubated at 1:1 ratio of C200 to glycoengineered-MSCs, 75% cytotoxicity was observed.

[5] = tested on: orthotopic ovarian tumors; experiment: Antitumor efficacy of glycoengineered MSC pre-incubated with DBCO-functionalized paclitaxel nanoparticles (FIG. 10); assay type: in vivo, mice; details: Kaplan-Meier; intraperitoneal; 2×10^6 MSC-Az; ABRAXANE at 40 mg/kg paclitaxel on day 0, 4, 8
Protocol: FIG. 10. Antitumor efficacy of glycoengineered MSC pre-incubated with DBCO-functionalized paclitaxel nanoparticles.
Saline-treated animals were used as […] control.

SMILES: CC(=O)OC[C@H]1OC(OC(C)=O)[C@@H](NC(=O)CN=[N+]=[N-])[C@@H](OC(C)=O)[C@@H]1OC(C)=O (some centres unmarked) [Ac4ManNAz, N-azidoacetylmannosamine-tetraacylated]
- cell viability of MSCs (MSCs [1]; 100 μM after five days of incubation): reduced
- viability of MSCs (MSCs [1]; up to 50 μM for seven days): unaffected
- azide expression on MSC surface by fluorophore labeling (MSCs [2]; 20 μM in culture media): highest expression levels
- surface coverage of azide groups (MSCs [2]; three days of incubation): highest surface coverage of azide groups

- MSC-Az associated fluorescence in tumor ([3]; 24 hours post injection): found even at 24 hours
SMILES: CCN1/C(=C/C=C/C=C/C2=[N+](CCCCCC(=O)NCCC(=O)N3Cc4ccccc4C#Cc4ccccc43)c3ccc4c(S(=O)(=O)[O-])cc(S(=O)(=O)O)cc4c3C2(C)C)C(C)(C)c2c1ccc1c(S(=O)(=O)O)cc(S(=O)(=O)O)cc21 [DBCO-Cy5.5]
- fluorescent label in tumors ([3]; one hour post intravenous dosing): detected only in the tumors injected with MSC-Az

SMILES: CC(=O)O[C@H]1C(=O)[C@@]2(C)[C@H]([C@H](OC(=O)c3ccccc3)[C@]3(O)C[C@H](OC(=O)[C@H](O)[C@@H](NC(=O)c4ccccc4)c4ccccc4)C(C)=C1C3(C)C)[C@]1(OC(C)=O)CO[C@@H]1C[C@@H]2O [PTX solution, paclitaxel]
- IC50 [4]: 4.16 nM
- median survival [5]: 50 days
